The nature of this test: In vitro kinase assay using purified enzyme, was incubated at room temperature with substrate, and test compounds in the presence of 100 uM ATP/ [gamma-33P] ATP. 33P incorporation was measured with scintillation counter. IC50 values were calculated from dose-response curves; from these calculated apparent inhibition constants (Ki) were obtained usin. As to conditions: pH 7.5.

A word on the IC50: it is the midpoint of a concentration-inhibition curve. Take `OCCCNc1cc(-c2ccnc(Nc3cccc(OC(F)(F)C(F)F)c3)n2)ccn1` [3-{[4-(2-{[3-(1,1,2,2-tetrafluoroethoxy)phenyl]amino}pyrimidin-4-yl)pyridin-2-yl]amino}propan-1-ol]: the IC50 is 3.6 µM.

For `NCCNc1cc(-c2ccnc(Nc3cccc(Cl)c3)n2)ccn1` [4-{2-[(2-aminoethyl)amino]pyridin-4-yl}-N-(3-chlorophenyl)pyrimidin-2-amine], the IC50 was 9.6 µM.

Take `Clc1cccc(Nc2nccc(-c3ccnc(NCCc4cnc[nH]4)c3)n2)c1` [N-(3-chlorophenyl)-4-(2-{[2-(1H-imidazol-4-yl)ethyl]amino}pyridin-4-yl)pyrimidin-2-amine]: the IC50 is 3.2 µM.
